Results on two molecules are retold here after paper PMC6128908, “Potent PDZ-Domain PICK1 Inhibitors that Modulate Amyloid Beta-Mediated Synaptic Dysfunction” (Scientific Reports, 2018).

As a reminder, the IC50 is the point on the concentration scale where inhibition reaches its midpoint. Read a low IC50 as inhibition by little substance. Broadly, the AUC is concentration integrated over time. The term Cmax denotes the peak of the concentration-time curve.

For series [1], the system named is CA1 pyramidal neurons. The series can be described thus: Long term depression, whole cell recording in hippocampal slices. It counts as cell-based. The settings on record: 4 µM internally, low frequency stimulation, wild-type mice hippocampal slices. The procedure: Adult mice aged 8 to 9 weeks were decapitated using a guillotine and sliced at the first cervical vertebra. A cut was made through the skin in the middle of the scalp and the skull plate. The skull plate was separated and the brain was removed, and immediately submerged in iced-cold oxygenated Dissection Buffer (211 mM Sucrose, 2.6 mM KCl, 26 mM NaHCO3, 1.25 mM NaH2PO4, 5 mM MgCl2, 0.5 mM CaCl2, and 10 mM glucose) for 2 minutes. The brain was placed on an ice-cold cutting station and the brain cut along the longitudinal cerebral fissure to separate the two hemispheres. Hemispheres were placed in iced-cold oxygenated Dissection Buffer andand cerebellum was pulled away to reveal the hippocampus. The two hemispheres were arranged so that the hippocampi faced each other like two columns and the whole structure was glued onto a mounting plate, and slices were sectioned at 400 µm thickness and transferred to a holding chamber with oxygenated Recovery Buffer (124 mM NaCl, 3 mM KCl, 26 mM NaHCO3, 1.25 mM NaH2PO4, 2 mM MgSO4, 4 mM CaCl2, 10 mM glucose, and 1 mM kynurenic acid). Slices were allowed to recover for 1–1.5 h at room temperature before electrophysiology experiments. Whole-Cell current-clamp measurements on hippocampal CA1 pyramidal neurons were carried out at 32 to 33 °C. The cells were held at −60 mV potential and schaffer collateral fibers were stimulated. […]

Series [2] can be described thus: Solubility comparison. It counts as physicochemical. The conditions noted are these: compared with compound 1z.
The target of series [3] is PICK1 (Homo sapiens, UniProt Q9NRD5). The series can be described thus: PICK1 competition (displacement) assay with tracer BIO424.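 Further: in vitro displacement assay with baculovirus-expressed, truncated dimeric PICK1 missing its final 59 residues.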
Method: Fluorescence polarization (FP) and competition binding assays were used to determine PDZ binding affinities and selectivity of compounds as described in Alfonso et al.[20]. Briefly, a fixed concentration (5 nM) of Fluorescein isothiocyanate-labeled peptides comprising the C-terminal amino acids of GluA2 (875–883) and N-methyl-D-aspartate receptor subunit 2B (1474–1482) was used. Binding FP assays were carried out using increasing concentrations of recombinant full-length PICK1, postsynaptic density 95 (PSD95) PDZ 1–2, or Shank3 PDZ, and normalized by subtracting the tracer-only background.
Two recombinant PICK1 constructs were used in this study. […] A truncated, dimeric form of PICK1 lacking the last 59 residues was expressed in baculovirus and purified to homogeneity for use in the in vitro displacement assay. In general, both proteins were purified by Nickel chromatograpy followed by size exclusion chromatography.
Series [4] can be described thus: PK properties in rats. It counts as in vivo. The procedure: We next investigated the PK properties of compound 1z in rats to explore if it represented an appropriate in vivo tool compound. […] Several other compounds within this series were tested for brain penetration and were likewise unable to cross the blood brain barrier.
Series [5] concerns surface GluA2 in cultured hippocampal neurons. The series can be described thus: Surface GluA2 immunostaining in cultured hippocampal neurons. The class given is cell-based, mouse. As to the method:
Experiments were conducted in accordance with and received approval from the Institutional Animal Care and Use Committees at Biogen Inc. The experiments were carried out in accordance with guidelines laid down by the NIH regarding the care and use of animals for experimental procedures. Primary hippocampal cultures were prepared from embryonic day 18 rodent brains as described previously. Cells were plated on coverslips coated with poly-D-lysine (30 µg/mL) and laminin (2 µg/mL) at a density of 70, 000 cells per well in 12-well plates. […] Embryonic neuronal cultures were prepared from a minimum of three independent pregnant mice on separate days in all of the studies described, and at least 13 neurons were analyzed for each experimental group. […]
Confocal images of immunostained neurons were obtained using a confocal microscope objective (LSM 710, Zeiss) with sequential acquisition settings at a resolution of 1024 × 1024 pixels. […] All analysis and quantifications were carried out using MetaMorph image analysis software (Universal Imaging Corporation). Dendrites from experimental groups were randomly selected and carefully traced, and the average intensity of fluorescence staining was determined for the traced regions. Intensity measurements are expressed in arbitrary units of fluorescence per square area. Acquisition and quantification of images was blinded. […]

Series [6] concerns AMPA receptor-dependent calcium influx in hippocampal neurons. The series can be described thus: Calcium mobilization assay (FLIPR), Aβ42-treated neurons. The class given is cell-based, mouse. The conditions noted are these: neurons treated with Aβ42 for 24 hours, 40 μM s-AMPA stimulation. (A change in cytosolic calcium serves as a functional read-out for many receptors and channels.)
Method: Synthetic Aβ42 hexafluoroisopropanol peptide was prepared to the stock concentration of 200 μM by adding 10 μL dimethylsulfoxide to 100 μg of Aβ42 hexafluoroisopropanol pellet and incubating for 30 min at room temperature with occasional mixing. […] The solution was kept at room temperature for 2 h and then used for experiments.
Mouse hippocampal neurons from wild type E16–18 animals were isolated and cultured for 13 days in vitro in Neurobasal media with B27 Supplement, Glutamax, and penicillin/streptomycin (Invitrogen). Neuron cultures were then treated with Aβ in the absence or presence of PICK1 inhibitorsfor 24 hours. Calcium influx was measured using the FLIPR Calcium 4 Assay (Molecular Devices). The cells were loaded with dye for 1 hour at 37 °C and then stimulated with 40 μM s-AMPA (Sigma). Fluorescent recordings were taken using the FLIPR Tetra (Molecular Devices). Baseline measurements before AMPA stimulation were recorded and fluorescent intensity measurements were taken for roughly 3 minutes during and after stimulation. Calcium influx was calculated as the area under the curve and plotted using PRISM GraphPad software.

Series [7] deals with T1, PSD95 PDZ 1-2 (Homo sapiens, UniProt P78352).
T1 construct: domains 1–2 in tandem; aminoacids 61–249; 8XHis-TEV; made in house; host or cells: E. coli
The settings on record: cited from earlier work.

Series [8] concerns GRIP. The conditions noted are these: cited from earlier work.
The mark [9] stands for this setting: rat, in vivo, 5 mg/kg, suspension (CMC/Tween).

Structures are written as SMILES.

Sequence of PICK1 (Q9NRD5 1-356): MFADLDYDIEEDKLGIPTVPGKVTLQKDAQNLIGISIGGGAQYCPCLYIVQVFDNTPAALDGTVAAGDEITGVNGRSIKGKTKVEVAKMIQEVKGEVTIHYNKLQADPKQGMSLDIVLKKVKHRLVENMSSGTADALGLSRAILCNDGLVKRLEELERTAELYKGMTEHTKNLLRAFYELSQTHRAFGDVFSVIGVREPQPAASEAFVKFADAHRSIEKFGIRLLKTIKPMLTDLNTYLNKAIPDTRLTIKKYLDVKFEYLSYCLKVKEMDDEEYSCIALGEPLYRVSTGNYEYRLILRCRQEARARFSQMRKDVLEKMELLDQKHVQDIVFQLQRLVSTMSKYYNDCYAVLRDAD
T1 sequence (P78352 61-249): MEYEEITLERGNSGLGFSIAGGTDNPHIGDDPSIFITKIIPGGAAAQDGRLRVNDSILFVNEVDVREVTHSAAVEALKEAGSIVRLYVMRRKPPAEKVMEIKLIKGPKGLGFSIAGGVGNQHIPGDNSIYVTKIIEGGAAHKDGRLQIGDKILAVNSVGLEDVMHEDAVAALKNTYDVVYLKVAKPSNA

On to `CC(c1ccccc1C(F)(F)F)N1CCC(C(=O)N[C@@H](CC2CC2)C(=O)O)(c2ccc(Br)cc2)CC1` (stereo partly shown) [1r], for which the “induction of long term depression (LTD)” value in series [1] was “LTD was not induced”. Moreover, in series [2], the solubility result was “better than compound 1z”. The 50% inhibitory concentration (IC50) in series [3] (IC50, BIO424 as tracer) came to 1230 nM.
Regarding `O=C(O)[C@H](CC1CC1)NC(=O)C1(c2ccc(C(F)(F)F)cc2)CCN(c2cc(Cl)cc3cccnc23)CC1` [1z], the “exposure in the brain (brain penetration)” value in series [4] is given as “no exposure in the brain”. In series [4] (setting [9]), the AUC was 2920 ng·h/mL and the peak level (Cmax) was 1360 ng/mL. Besides, in series [5] (3 μM, 24 hours, cultured hippocampal neurons), the “surface GluA2 levels relative to untreated neurons” value is listed as “increased”. For the same molecule, the “total amount of GluA2 in the cytoplasm and on the cell surface” value in series [5] (inhibitor treatment, data not shown) was “unchanged”. For the same molecule, the “effect on Aβ42-induced increase in intracellular calcium concentration” value in series [6] is “attenuated”. Also, the “selectivity for PICK1 over PSD95” value in series [7] is recorded as “selectivity”. Also, the “selectivity for PICK1 over GRIP” value in series [8] is given as “selectivity”. The same molecule yielded a half-maximal inhibitory concentration (IC50) in series [3] (IC50 (potency)) of 69 nM. In addition, the “fold more potent than the unsubstituted quinoline” value in series [3] (relative to 1u) was 67 fold.
